Earlier results on 4 compounds are cited in US20070258969A1, “Compositions and methods for targeting metastatic tumors using multivalent ligand-linked carbohydrate polymers” (priority 2004, published 2007).

Series [1] relates to L-1 sarcoma cells. The conditions noted are these: in vivo.
Series [2] relates to B16 melanoma cells. The conditions noted are these: in vivo.

As to arabinogalactose, the “liver metastasis of L-1 sarcoma cells” value in series [1] is listed as “inhibited liver metastasis”.

With `O=C[C@H](O)[C@@H](O)[C@@H](O)[C@H](O)CO` [D-galactose], the “liver metastasis of L-1 sarcoma cells” value in series [1] is reported as “inhibited liver metastasis”.

Turning to `CO[C@H]1O[C@H](CO)[C@@H](O[C@@H]2O[C@H](CO)[C@H](O)[C@H](O)[C@H]2O)[C@H](O)[C@H]1O` [methyl-α-D-lactoside], in series [2], the “metastasis of B16 melanoma cells” value is on record as “inhibit metastasis”.

For `CC(=O)N[C@H]1[C@H](O[C@H]2[C@@H](O)[C@@H](CO)O[C@@H](O[C@H]3[C@H](O)[C@@H](O)C(O)O[C@@H]3CO)[C@@H]2O)O[C@H](CO)[C@@H](O)[C@@H]1O[C@@H]1O[C@H](CO)[C@H](O)[C@H](O)[C@H]1O` (stereo partly shown) [lacto-N-tetrose], in series [2], the “metastasis of B16 melanoma cells” value is “inhibit metastasis”.
